From ChEMBL document CHEMBL5550200, “Back-Pocket Optimization of 2-Aminopyrimidine-Based Macrocycles Leads to Potent EPHA2/GAK Kinase Inhibitors” (J Med Chem, 2024)

What was measured:
dengue virus type 2 = assay: Antiviral activity against DENV-2 New Guinea C infected in human Huh-7 cells assessed as reduction in virus induced cytopathic effect preincubated with cells for 1 hr followed by viral infection and measured after 45 to 48 hrs by luciferase assay; type: functional, organism-based; conditions: for EC90: time 45-48 hrs
[1] = biological target: Vascular endothelial growth factor receptor 1 (Homo sapiens, UniProt P17948); assay: Induction of stabilization of recombinant FLT1 (unknown origin) assessed as change in melting temperature by differential scanning fluorimetry assay
[2] = biological target: Fibroblast growth factor receptor 2 (Homo sapiens) (UniProt P21802)
Description: Induction of stabilization of recombinant FGFR2 (unknown origin) assessed as change in melting temperature by differential scanning fluorimetry assay

[3] = biological target: T1, Ephrin type-B receptor 3 (Homo sapiens) (UniProt P54753); assay: Induction of stabilization of recombinant EPHB3 (unknown origin) assessed as change in melting temperature by differential scanning fluorimetry assay
T1 sequence (whole entry): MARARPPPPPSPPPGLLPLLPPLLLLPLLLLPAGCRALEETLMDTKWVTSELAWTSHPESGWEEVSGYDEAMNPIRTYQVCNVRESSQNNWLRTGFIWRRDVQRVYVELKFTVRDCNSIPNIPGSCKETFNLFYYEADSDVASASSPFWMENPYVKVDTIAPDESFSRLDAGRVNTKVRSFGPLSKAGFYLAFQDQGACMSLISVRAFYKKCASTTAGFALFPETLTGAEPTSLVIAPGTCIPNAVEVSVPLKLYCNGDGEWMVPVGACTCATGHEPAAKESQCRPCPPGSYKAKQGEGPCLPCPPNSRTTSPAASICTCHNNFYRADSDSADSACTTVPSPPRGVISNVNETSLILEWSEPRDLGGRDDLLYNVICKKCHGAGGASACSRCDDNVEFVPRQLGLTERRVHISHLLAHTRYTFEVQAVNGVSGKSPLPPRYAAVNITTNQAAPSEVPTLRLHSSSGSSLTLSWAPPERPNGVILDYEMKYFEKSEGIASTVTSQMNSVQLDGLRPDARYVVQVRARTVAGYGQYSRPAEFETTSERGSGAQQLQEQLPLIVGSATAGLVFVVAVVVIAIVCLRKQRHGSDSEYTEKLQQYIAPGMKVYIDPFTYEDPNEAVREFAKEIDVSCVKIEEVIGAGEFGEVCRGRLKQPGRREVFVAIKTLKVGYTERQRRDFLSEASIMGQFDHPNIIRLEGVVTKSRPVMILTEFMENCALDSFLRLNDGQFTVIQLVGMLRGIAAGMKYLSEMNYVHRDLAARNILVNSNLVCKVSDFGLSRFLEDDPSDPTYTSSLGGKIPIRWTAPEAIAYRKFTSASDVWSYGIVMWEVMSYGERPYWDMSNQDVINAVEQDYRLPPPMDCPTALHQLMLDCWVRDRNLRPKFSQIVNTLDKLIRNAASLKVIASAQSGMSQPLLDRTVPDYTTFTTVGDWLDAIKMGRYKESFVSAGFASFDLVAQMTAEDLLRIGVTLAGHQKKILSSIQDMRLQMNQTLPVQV

[4] = biological target: Ephrin type-A receptor 5 (Homo sapiens) (UniProt P54756)
Description: Induction of stabilization of recombinant EPHA5 (unknown origin) assessed as change in melting temperature by differential scanning fluorimetry assay

[5] = biological target: T2, Cyclin-G-associated kinase (Homo sapiens) (UniProt O14976)
T2 sequence (whole entry): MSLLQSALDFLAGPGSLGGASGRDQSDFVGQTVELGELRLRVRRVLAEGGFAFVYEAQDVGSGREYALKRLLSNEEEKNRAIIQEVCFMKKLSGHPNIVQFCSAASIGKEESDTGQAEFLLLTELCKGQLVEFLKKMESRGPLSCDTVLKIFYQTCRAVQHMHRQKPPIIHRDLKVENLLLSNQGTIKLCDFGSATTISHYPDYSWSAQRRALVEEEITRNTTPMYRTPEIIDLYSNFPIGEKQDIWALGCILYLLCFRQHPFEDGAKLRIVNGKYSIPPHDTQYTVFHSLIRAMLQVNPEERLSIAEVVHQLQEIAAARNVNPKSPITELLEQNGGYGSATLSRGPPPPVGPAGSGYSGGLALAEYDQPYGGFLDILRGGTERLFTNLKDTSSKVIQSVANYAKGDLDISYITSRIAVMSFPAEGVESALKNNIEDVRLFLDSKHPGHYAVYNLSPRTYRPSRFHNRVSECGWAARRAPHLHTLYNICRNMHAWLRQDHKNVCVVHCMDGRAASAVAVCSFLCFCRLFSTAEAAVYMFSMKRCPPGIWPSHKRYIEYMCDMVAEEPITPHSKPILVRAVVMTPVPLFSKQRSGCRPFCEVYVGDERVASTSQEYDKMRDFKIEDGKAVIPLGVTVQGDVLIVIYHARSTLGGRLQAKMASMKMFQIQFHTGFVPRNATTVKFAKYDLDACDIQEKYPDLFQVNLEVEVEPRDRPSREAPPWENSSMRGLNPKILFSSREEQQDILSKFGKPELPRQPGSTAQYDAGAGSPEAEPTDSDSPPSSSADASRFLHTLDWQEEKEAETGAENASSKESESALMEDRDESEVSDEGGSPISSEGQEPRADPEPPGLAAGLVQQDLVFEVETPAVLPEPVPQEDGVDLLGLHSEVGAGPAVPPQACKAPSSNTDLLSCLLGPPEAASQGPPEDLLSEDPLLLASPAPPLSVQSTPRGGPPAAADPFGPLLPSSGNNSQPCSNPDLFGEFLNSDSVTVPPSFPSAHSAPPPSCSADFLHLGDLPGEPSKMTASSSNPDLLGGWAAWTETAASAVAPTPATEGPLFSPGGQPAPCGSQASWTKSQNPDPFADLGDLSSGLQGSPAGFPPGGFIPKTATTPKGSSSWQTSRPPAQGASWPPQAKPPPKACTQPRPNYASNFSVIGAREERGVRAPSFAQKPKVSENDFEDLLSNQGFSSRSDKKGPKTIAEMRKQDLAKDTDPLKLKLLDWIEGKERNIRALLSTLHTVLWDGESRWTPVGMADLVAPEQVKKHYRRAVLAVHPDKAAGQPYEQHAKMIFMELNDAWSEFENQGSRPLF
Description: Induction of stabilization of recombinant GAK (unknown origin) assessed as change in melting temperature by differential scanning fluorimetry assay

Ephrin type-A receptor 5 (Homo sapiens), sequence (P54756 whole entry): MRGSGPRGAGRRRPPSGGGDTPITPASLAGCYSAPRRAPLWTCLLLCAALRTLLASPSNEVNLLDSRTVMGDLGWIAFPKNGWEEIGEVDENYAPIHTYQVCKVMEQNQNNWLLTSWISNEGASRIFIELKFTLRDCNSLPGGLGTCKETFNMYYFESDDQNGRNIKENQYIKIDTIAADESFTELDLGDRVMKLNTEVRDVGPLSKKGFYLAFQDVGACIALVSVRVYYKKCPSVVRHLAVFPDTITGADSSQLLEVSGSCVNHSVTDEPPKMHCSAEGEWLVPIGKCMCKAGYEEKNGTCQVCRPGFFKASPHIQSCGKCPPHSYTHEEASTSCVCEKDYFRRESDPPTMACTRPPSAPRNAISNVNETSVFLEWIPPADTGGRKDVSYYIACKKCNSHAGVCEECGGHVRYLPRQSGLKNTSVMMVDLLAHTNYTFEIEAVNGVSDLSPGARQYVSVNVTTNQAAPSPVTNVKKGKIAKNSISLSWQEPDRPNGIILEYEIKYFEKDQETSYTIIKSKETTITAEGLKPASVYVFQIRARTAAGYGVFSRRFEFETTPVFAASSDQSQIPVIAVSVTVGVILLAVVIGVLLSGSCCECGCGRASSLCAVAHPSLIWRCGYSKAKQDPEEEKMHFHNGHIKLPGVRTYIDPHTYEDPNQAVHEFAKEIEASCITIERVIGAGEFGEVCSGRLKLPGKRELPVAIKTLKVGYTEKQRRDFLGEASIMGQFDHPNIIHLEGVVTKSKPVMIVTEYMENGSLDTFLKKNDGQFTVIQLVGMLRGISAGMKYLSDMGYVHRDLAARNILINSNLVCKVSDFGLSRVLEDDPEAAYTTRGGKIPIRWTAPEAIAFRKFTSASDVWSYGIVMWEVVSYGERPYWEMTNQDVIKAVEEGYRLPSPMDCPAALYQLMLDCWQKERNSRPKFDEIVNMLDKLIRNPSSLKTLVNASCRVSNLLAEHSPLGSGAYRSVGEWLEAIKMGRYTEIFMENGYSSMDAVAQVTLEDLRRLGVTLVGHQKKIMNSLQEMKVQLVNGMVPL
Vascular endothelial growth factor receptor 1, sequence (P17948 whole entry): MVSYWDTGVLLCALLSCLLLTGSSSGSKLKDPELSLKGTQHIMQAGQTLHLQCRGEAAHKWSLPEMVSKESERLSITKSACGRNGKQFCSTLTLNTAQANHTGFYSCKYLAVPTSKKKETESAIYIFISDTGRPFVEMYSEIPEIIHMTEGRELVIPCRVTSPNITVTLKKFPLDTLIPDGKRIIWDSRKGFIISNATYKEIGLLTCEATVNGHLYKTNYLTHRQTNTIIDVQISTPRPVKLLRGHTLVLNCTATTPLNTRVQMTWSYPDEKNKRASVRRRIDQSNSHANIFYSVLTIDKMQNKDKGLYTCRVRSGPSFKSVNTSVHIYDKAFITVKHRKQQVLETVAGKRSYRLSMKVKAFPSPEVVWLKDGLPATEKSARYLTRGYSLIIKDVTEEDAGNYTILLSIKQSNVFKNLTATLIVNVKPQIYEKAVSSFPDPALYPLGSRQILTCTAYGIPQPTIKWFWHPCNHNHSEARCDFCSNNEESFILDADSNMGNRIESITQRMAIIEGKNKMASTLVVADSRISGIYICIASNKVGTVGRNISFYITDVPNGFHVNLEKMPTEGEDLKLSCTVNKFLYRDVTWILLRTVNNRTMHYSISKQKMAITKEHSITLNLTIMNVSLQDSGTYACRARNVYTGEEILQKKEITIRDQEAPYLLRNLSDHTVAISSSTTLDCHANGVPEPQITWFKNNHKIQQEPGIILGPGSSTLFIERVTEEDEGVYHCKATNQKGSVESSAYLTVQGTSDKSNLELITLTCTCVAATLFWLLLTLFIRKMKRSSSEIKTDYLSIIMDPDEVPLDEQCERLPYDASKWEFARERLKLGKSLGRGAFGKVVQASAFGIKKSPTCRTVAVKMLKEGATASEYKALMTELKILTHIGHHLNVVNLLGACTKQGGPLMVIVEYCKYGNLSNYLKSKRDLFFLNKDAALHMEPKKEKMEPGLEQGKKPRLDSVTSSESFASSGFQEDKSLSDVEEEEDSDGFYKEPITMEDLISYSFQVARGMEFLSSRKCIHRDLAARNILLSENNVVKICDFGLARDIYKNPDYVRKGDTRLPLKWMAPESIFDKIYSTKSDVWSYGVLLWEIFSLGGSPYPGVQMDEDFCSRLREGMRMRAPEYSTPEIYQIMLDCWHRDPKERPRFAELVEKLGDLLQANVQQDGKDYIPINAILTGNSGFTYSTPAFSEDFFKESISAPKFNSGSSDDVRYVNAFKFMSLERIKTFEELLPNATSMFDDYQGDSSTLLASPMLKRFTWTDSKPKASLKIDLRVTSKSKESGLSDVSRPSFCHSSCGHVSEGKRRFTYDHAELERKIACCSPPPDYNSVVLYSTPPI
Fibroblast growth factor receptor 2 (Homo sapiens), sequence (P21802 22-821 limits assumed): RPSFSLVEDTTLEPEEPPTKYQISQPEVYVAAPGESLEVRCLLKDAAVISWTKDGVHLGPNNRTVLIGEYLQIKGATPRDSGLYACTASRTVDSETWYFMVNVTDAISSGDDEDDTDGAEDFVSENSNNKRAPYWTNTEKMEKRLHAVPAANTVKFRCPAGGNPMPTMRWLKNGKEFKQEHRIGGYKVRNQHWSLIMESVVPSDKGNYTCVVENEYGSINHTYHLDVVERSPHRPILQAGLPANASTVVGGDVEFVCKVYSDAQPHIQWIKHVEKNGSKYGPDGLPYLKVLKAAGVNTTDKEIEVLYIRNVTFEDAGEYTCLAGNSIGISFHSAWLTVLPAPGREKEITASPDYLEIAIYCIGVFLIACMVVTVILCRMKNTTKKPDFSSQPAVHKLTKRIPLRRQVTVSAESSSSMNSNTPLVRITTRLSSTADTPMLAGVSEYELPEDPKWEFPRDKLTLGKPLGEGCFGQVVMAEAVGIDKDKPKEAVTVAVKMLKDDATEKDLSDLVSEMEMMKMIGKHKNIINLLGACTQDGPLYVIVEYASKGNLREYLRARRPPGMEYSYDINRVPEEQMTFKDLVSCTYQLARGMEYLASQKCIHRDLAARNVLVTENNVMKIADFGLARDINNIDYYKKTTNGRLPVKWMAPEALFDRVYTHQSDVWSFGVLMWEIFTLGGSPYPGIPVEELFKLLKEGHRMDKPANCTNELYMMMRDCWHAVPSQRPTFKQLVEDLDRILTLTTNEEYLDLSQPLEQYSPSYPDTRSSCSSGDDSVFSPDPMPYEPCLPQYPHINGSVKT

Structure (SMILES)	EC50 (dengue virus type 2)	EC90 (dengue virus type 2)	deltaTm [1]	deltaTm [2]	deltaTm [3]	deltaTm [4]	deltaTm [5]
COc1cc(-c2cnc3nc2NCCCNS(=O)(=O)c2cc(ccc2O)N3)ccc1F	> 10 µM	> 10 µM	3 K	3 K	4.2 K	4.7 K	8 K
O=S1(=O)NCCCNc2nc(ncc2-c2ccc(Cl)c(Cl)c2)Nc2cccc1c2	3.7 µM	9 µM	3.6 K	3.9 K	3.2 K	3.4 K	3.6 K
COc1c(F)ccc(-c2cnc3nc2NCCCNS(=O)(=O)c2cccc(c2)N3)c1F	1.8 µM	2.9 µM	8.8 K	5.8 K	4.8 K	5.4 K	6.8 K
COc1cc(-c2cnc3nc2NCCCNS(=O)(=O)c2cccc(c2)N3)c(F)cc1F	> 10 µM	> 10 µM	3.4 K	3.6 K	3.9 K	5 K	7.3 K
